Assay: magnetic field-magnetization curve measured with MPMS7 (Quantum Design)
Format: physicochemical
Conditions: 37 degrees Celsius (310 K)
Source text: Also, FIG. 8 is a graph showing the magnetic field-magnetization curves of the Mn salen complex, the Cr salen complex, and the Fe salen complex.

- magnetism from magnetic field-magnetization curve: paramagnetic
SMILES: [Co+2].[O-]c1ccccc1C=NCCN=Cc1ccccc1[O-] [Co salen complex]
